Laboratory results as given in patent publication US4686237A, “Erythro-(E)-7-[3'-C1-3 alkyl-1'-(3",5"-dimethylphenyl)naphth-2'-yl]-3,5-dihydroxyhept-6-enoic acids and derivatives thereof” (Sandoz Pharmaceuticals Corp., priority 1986, dated 1987).
Read-outs that look alike come from different tables or passages of the source.

How the values were obtained:
HMG-CoA reductase = biological target: T1, HMG-CoA reductase (Rattus norvegicus, UniProt P51639); assay: Test A. In Vitro Microsomal Assay of HMG-CoA Reductase Inhibition; assay type: biochemical; settings: rat liver microsomal suspensions, male Sprague-Dawley rats; read-out: IC50 (concentration of the test substance calculated to produce a 50% inhibition of HMG-CoA reductase activity)
T1 construct: In the assay the microsomes are the source of the HMG-CoA reductase enzyme; from tissue; host or cells: rat liver microsomes (male Sprague-Dawley rats)
T1 sequence (P51639 1-887): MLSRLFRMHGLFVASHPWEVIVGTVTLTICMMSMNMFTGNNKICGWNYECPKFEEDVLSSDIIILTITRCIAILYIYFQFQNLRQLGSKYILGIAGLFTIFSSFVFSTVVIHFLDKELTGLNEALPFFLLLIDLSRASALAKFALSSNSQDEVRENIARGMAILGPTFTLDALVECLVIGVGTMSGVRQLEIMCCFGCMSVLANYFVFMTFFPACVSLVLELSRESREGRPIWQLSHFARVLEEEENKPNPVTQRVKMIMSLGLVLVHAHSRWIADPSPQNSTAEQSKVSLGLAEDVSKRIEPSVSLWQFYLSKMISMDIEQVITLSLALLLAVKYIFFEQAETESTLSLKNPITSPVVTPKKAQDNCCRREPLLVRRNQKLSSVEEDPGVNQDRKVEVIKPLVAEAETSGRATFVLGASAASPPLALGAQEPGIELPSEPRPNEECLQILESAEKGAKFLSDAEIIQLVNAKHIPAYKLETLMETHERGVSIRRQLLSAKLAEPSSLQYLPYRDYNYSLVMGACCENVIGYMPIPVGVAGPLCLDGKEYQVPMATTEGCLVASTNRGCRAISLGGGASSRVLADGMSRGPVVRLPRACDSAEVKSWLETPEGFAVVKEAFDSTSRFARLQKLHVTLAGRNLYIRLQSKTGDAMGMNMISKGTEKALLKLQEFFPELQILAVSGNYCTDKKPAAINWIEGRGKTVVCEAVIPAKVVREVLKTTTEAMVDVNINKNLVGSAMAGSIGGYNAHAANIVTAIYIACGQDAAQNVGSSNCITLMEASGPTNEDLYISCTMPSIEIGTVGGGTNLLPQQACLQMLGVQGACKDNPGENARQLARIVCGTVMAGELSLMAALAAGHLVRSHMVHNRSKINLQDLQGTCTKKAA
Method: Test A. In Vitro Microsomal Assay of HMG-CoA Reductase Inhibition:
200 μl. aliquots (1.08-1.50 mg./ml.) of rat liver microsomal suspensions, freshly prepared from male Sprague-Dawley rats (150-225 g. body weight), in Buffer A with 10 mmol. dithiothreitol are incubated with 10 μl. of a solution of the test substance in dimethylacetamide and assayed for HMG-CoA reduotase activity as described in Ackerman et al., J. Lipid Res. 18, 408-413 (1977). In the assay the microsomes are the source of the HMG-CoA reductase enzyme which catalyzes the reduction of HMG-CoA to mevalonate. The assay employs a chloroform extraction to separate the product, [^14 C]mevalonolactone, formed by the HMG-CoA reductase reaction from the substrate, [^14 C]HMG-CoA. [^3 H]mevalonolactoneis added as an internal reference. Inhibition of HMG-CoA reductase is calculated from the decrease in specific activity ([^14 C/^3 H]mevalonate) of test groups compared to controls.
IC50 is the concentration of the test substance in
the assay system calculated to produce a 50%
inhibition of HMG-CoA reductase activity.

cholesterol biosynthesis = assay: Test C: In Vivo Cholesterol Biosynthesis Inhibition Test; parameters: species or system rat; settings: for change in sterol synthesis (nCi of sterols formed) from test groups compared to controls: at 0.5 mg./kg.; for ED50: Rattus norvegicus, ip, read-out: ED50 (inhibition of sterol synthesis)
Source text: Test C: In Vivo Cholesterol Biosynthesis Inhibition Test: In vivo studies utilize male Wistar Royal Hart rats weighing 150±20 g. which have been kept for 7-10 days on an altered light cycle (6:30 A.M.-6:30 P.M. dark) housed two per cage and fed powdered Purina Rat Chow and water ad libitum. […] Controls receive vehicle alone. […] Two hours after mid-dark, blood samples are obtained under sodium hexobarbitol anesthesia and the serum is separated by centrifugation. […] The [^14 C]digitonides are then counted by liquid scintillation spectrometry. […] Inhibition of sterol synthesis is calculated from the reduction in the nCi of sterols formed from test groups compared to controls.

[1] = male Wistar Royal Hart rats, [1-14C]acetate i.p.

Row | Structure (SMILES) | IC50 (HMG-CoA reductase) | change in sterol synthesis (nCi of sterols formed) from test groups compared to controls (cholesterol biosynthesis; [1]) | ED50 (cholesterol biosynthesis; [1]) | ED50 (cholesterol biosynthesis)
1 | Cc1cc(C)cc(-c2c(/C=C/[C@@H]3C[C@@H](O)CC(=O)O3)c(C)cc3ccccc23)c1 (relative stereo) [Example 4, (E)-Trans-6-(2'-[1"-(3"',5"'-dimethylphenyl)-3"-methylnaphth-2"-yl]ethenyl)-4-hydroxy-3,4,5,6-tetrahydro-2H-pyran-2-one] | 330 nM | -20% | – | –
2 | CC[C@H](C)C(=O)O[C@H]1CCC=C2C=C[C@H](C)[C@H](CC[C@@H]3C[C@@H](O)CC(=O)O3)[C@H]21 [Compactin, reference compound] | 770 nM | – | 3.5 mg/kg | –
3 | CC[C@H](C)C(=O)O[C@H]1C[C@@H](C)C=C2C=C[C@H](C)[C@H](CC[C@@H]3C[C@@H](O)CC(=O)O3)[C@H]21 [Mevinolin, reference compound] | – | – | – | 0.41 mg/kg

Further compounds by falling IC50 (HMG-CoA reductase), results first:

Row | IC50 (HMG-CoA reductase) | Structure (SMILES) | change in sterol synthesis (nCi of sterols formed) from test groups compared to controls (cholesterol biosynthesis; [1]) | ED50 (cholesterol biosynthesis; [1]) | ED50 (cholesterol biosynthesis)
4 | 80 nM | CCOC(=O)C[C@H](O)C[C@H](O)/C=C/c1c(C)cc2ccccc2c1-c1cc(C)cc(C)c1 (relative stereo) [Example 1, Ethyl erythro-(E)-3,5-dihydroxy-7-[1'-(3",5"-dimethylphenyl)-3-methylnaphth-2'-yl]hept-6-enoate] | -35% | – | –
5 | 10 nM | Cc1cc(C)cc(-c2c(/C=C/[C@@H](O)C[C@@H](O)CC(=O)O)c(C)cc3ccccc23)c1 (relative stereo) [Example 2, Sodium erythro-(E)-3,5-dihydroxy-7-[1'-(3",5"-dimethylphenyl)-3'-methylnaphth-2'-yl]hept-6-enoate] | – | 0.3 mg/kg | –
